This is an account of results in patent EP3797781A1, “USE OF EC-7072 AND SYNERGIC COMPOSITIONS THEREOF IN TREATMENT OF CHRONIC LYMPHOCYTIC LEUKEMIA” (priority 2019, dated 2021).

This assay has as its system histone H2AX. Put plainly: Phosphoflow of phosphorylated H2AX in isolated leukemia cells. The class given is cell-based, human. The following applies: 200 nM, 12 hours; isolated leukemia cells (n = 4). As for the experimental part: Protein phosphorylation levels were evaluated by phosphoflow. Briefly, isolated leukemia cells from patients with CLL were treated with 200 nM EC-7072 or DMSO for 8 or 12 hours. In some experiments, BCR signaling was activated with goat F(ab')2 anti-IgM antibody (10 µg/mL; SouthernBiotech) for 45 minutes. Right afterwards, cells were fixed with 1.8% paraformaldehyde for 10 minutes at RT and permeabilized with 90% ice-cold methanol for 25 minutes at 4 °C. Finally, cells were incubated with specific phospho-antibodies (p-SYK, p-BTK, p-ERK1/2 and p-H2AX from Biolegend, and p-PLCγ2, p-AKT, p-p65 NF-κB and p-STAT3 from BD Bioscience) for 30 minutes at RT and mean fluorescence intensity (MFI) was analyzed by flow cytometry.
The induction of caspase-dependent apoptosis on primary CLL cells by EC-7072 was assessed by: • (i) incubating PBMCs isolated from patients with CLL (n = 6) following treatment with increasing concentrations of EC-7072 (0 - 400 nM) for 24 hours. Apoptosis of leukemia cells was evaluated by cytofluorometric assessment of Annexin V/PI staining to obtain percentages of apoptotic [Annexin V^+ PI^-] and dead [PI^+] cells (Figure 3A); • (ii) incubating PBMCs and T cells isolated from patients with CLL (n = 3) following treatment with EC-7072 (200 nM) for 24 hours. […]

For `CO[C@@H]([C@@H]1Cc2cc3cc(O[C@H]4C[C@@H](O[C@H]5C[C@@H](O)[C@H](O)[C@@H](C)O5)[C@H](O)[C@@H](C)O4)c(C)c(O)c3c(O)c2C(=O)[C@H]1O[C@H]1C[C@@H](O[C@H]2C[C@@H](O[C@H]3C[C@](C)(O)[C@H](O)[C@@H](C)O3)[C@@H](O)[C@@H](C)O2)[C@H](O)[C@@H](C)O1)[C@@H](O)C(C)=O` [EC-7072, mithramycin SK], the “phosphorylation of histone H2AX” value was “heightened phosphorylation”.
